Experimental data: PubChem BioAssay (NCI)
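Values below derive from 48-hour exposures of cells grown in 96-well plates, with endpoints linearly interpolated between the two concentrations bracketing the appropriate inhibition level. At the TGI there is no net growth.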

What was measured:
Test in all cases: DTP human tumour cell line panel, 48 h
[1] = test system: SF-539 CNS
[2] = test system: CAKI-1 renal
[3] = test system: BT-549 breast
[4] = test system: SNB-19 CNS
[5] = test system: SW-620 colon
[6] = test system: UACC-62 melanoma
[7] = test system: LOX IMVI melanoma
[8] = test system: SR leukemia
[9] = test system: EKVX NSCLC
[10] = test system: SK-MEL-2 melanoma
[11] = test system: SNB-75 CNS
[12] = test system: SK-OV-3 ovarian
[13] = test system: OVCAR-8 ovarian
[14] = test system: MDA-MB-435
[15] = test system: HCC-2998 colon
[16] = test system: COLO 205 colon
[17] = test system: SF-268 CNS
[18] = test system: HL-60(TB) leukemia
[19] = test system: NCI-H460 lung
[20] = test system: MCF7 breast
[21] = test system: A549 NSCLC
[22] = test system: KM12 colon
[23] = test system: HCT-116 colon
[24] = test system: CCRF-CEM leukemia
[25] = test system: SN12C renal
[26] = test system: OVCAR-5 ovarian
[27] = test system: DU-145 prostate
[28] = test system: ACHN renal
[29] = test system: K-562 leukemia
[30] = test system: RXF 393 renal
[31] = test system: PC-3 prostate
[32] = test system: MOLT-4 leukemia
[33] = test system: UACC-257 melanoma
[34] = test system: HOP-92 NSCLC
[35] = test system: MDA-MB-231 breast
[36] = test system: NCI-H226 lung
[37] = test system: TK-10 renal
[38] = test system: RPMI-8226 leukemia
[39] = test system: SK-MEL-28 melanoma
[40] = test system: M14 melanoma
[41] = test system: MDA-N
[42] = test system: NCI-H23 lung
[43] = test system: SF-295 CNS
[44] = test system: U251 CNS
[45] = test system: NCI/ADR-RES ovarian
[46] = test system: IGROV1 ovarian
[47] = test system: OVCAR-3 ovarian
[48] = test system: OVCAR-4 ovarian
[49] = test system: A498 renal
[50] = test system: HOP-62 NSCLC
[51] = test system: HS 578T breast
[52] = test system: UO-31 renal
[53] = test system: 786-0 renal
[54] = test system: HT29 colon
[55] = test system: HCT-15 colon
[56] = test system: T-47D breast
[57] = test system: NCI-H522 lung
[58] = test system: SK-MEL-5 melanoma
[59] = test system: MALME-3M melanoma

N#Cc1c(Cl)c2ccccc2n2c1nc1ccccc12
TGI [1]: 42.8 µM
TGI [2]: 51.4 µM
TGI [3]: > 100 µM
TGI [4]: > 100 µM
TGI [5]: > 100 µM
TGI [6]: > 100 µM
TGI [7]: 34.6 µM
TGI [8]: 77.7 µM
TGI [9]: 70 µM
TGI [10]: > 100 µM
TGI [11]: > 100 µM
TGI [12]: > 100 µM
TGI [13]: 48.3 µM
TGI [14]: > 100 µM
TGI [15]: 40.1 µM
TGI [16]: 41.9 µM
TGI [17]: 83.7 µM
TGI [18]: 31 µM
TGI [19]: > 100 µM
TGI [20]: > 100 µM
TGI [21]: > 100 µM
TGI [22]: > 100 µM
TGI [23]: 33.5 µM
TGI [24]: 47.2 µM
TGI [25]: 67 µM
TGI [26]: > 100 µM
TGI [27]: 80.4 µM
TGI [28]: 32.6 µM
TGI [29]: > 100 µM
TGI [30]: 49.3 µM
TGI [31]: > 100 µM
TGI [32]: 75.9 µM
TGI [33]: > 100 µM
TGI [34]: 48.2 µM
TGI [35]: 74 µM
TGI [36]: 59 µM
TGI [37]: 36.5 µM
TGI [38]: 72.7 µM
TGI [39]: > 100 µM
TGI [40]: 69.8 µM
TGI [41]: > 100 µM
TGI [42]: 53.8 µM
TGI [43]: > 100 µM
TGI [44]: > 100 µM
TGI [45]: 65.6 µM
TGI [46]: 38.7 µM
TGI [47]: > 100 µM
TGI [48]: 84 µM
TGI [49]: > 100 µM
TGI [50]: > 100 µM
TGI [51]: 63.1 µM
TGI [52]: 38.2 µM
TGI [53]: 51 µM
TGI [54]: 35.7 µM
TGI [55]: 33.1 µM
TGI [56]: 46.8 µM

O=[N+]([O-])c1ccc2[nH]ncc2c1Cl
TGI [1]: > 100 µM
TGI [3]: 89.7 µM
TGI [4]: > 100 µM
TGI [5]: > 100 µM
TGI [6]: > 100 µM
TGI [7]: 38.9 µM
TGI [8]: > 100 µM
TGI [9]: 53.8 µM
TGI [10]: 40.4 µM
TGI [11]: > 100 µM
TGI [12]: > 100 µM
TGI [13]: > 100 µM
TGI [14]: > 100 µM
TGI [15]: > 100 µM
TGI [16]: 28.2 µM
TGI [18]: > 100 µM
TGI [19]: > 100 µM
TGI [20]: > 100 µM
TGI [21]: > 100 µM
TGI [22]: > 100 µM
TGI [23]: 80.4 µM
TGI [24]: > 100 µM
TGI [25]: > 100 µM
TGI [26]: 62.5 µM
TGI [57]: 16.5 µM
TGI [27]: 32.2 µM
TGI [28]: 51.5 µM
TGI [29]: > 100 µM
TGI [30]: > 100 µM
TGI [31]: 90.7 µM
TGI [32]: 72.6 µM
TGI [58]: 27 µM
TGI [33]: > 100 µM
TGI [34]: > 100 µM
TGI [35]: 35 µM
TGI [36]: > 100 µM
TGI [37]: > 100 µM
TGI [38]: 61.2 µM
TGI [39]: > 100 µM
TGI [41]: 48.1 µM
TGI [43]: > 100 µM
TGI [44]: > 100 µM
TGI [45]: > 100 µM
TGI [46]: 39.1 µM
TGI [47]: > 100 µM
TGI [48]: 85.5 µM
TGI [49]: > 100 µM
TGI [50]: > 100 µM
TGI [51]: 59.3 µM
TGI [53]: > 100 µM
TGI [54]: 77.4 µM
TGI [55]: > 100 µM
TGI [56]: 44.4 µM

C=C1CC(C)(COc2ccc3ccc(=O)oc3c2)OC1=O (stereo not given)
TGI [1]: 10.2 µM
TGI [2]: 7.84 µM
TGI [3]: 2.65 µM
TGI [4]: 51.9 µM
TGI [5]: 4.79 µM
TGI [6]: 13.2 µM
TGI [7]: 5.65 µM
TGI [8]: > 20.7 µM
TGI [9]: 26.7 µM
TGI [10]: 8.8 µM
TGI [11]: 22.6 µM
TGI [12]: 21.4 µM
TGI [13]: 19.7 µM
TGI [14]: 9.35 µM
TGI [15]: 6.96 µM
TGI [16]: 4.42 µM
TGI [17]: 33.5 µM
TGI [18]: 2.57 µM
TGI [19]: 22.9 µM
TGI [20]: 5.65 µM
TGI [21]: 30.5 µM
TGI [22]: 17.6 µM
TGI [23]: 6.38 µM
TGI [24]: 5.11 µM
TGI [25]: 25 µM
TGI [26]: 22.1 µM
TGI [57]: 2.84 µM
TGI [27]: 12.5 µM
TGI [28]: 11.2 µM
TGI [29]: 32.1 µM
TGI [31]: 16.2 µM
TGI [32]: 2.46 µM
TGI [59]: 6.31 µM
TGI [58]: 6.65 µM
TGI [33]: 2.58 µM
TGI [34]: 4.4 µM
TGI [35]: 24.6 µM
TGI [36]: 27.3 µM
TGI [37]: 4.29 µM
TGI [38]: 4.7 µM
TGI [39]: 11.2 µM
TGI [40]: 4.97 µM
TGI [41]: 13.8 µM
TGI [42]: 12.3 µM
TGI [43]: 20.8 µM
TGI [44]: 27.1 µM
TGI [45]: 11.2 µM
TGI [46]: 10.8 µM
TGI [47]: 17.2 µM
TGI [48]: 11.1 µM
TGI [49]: 23.1 µM
TGI [50]: 39.5 µM
TGI [51]: 24.3 µM
TGI [52]: 29.5 µM
TGI [53]: 7.42 µM
TGI [54]: 9.66 µM
TGI [55]: 8.71 µM
TGI [56]: 17.3 µM

O=C1c2cc([N+](=O)[O-])ccc2-c2cccc(F)c21
TGI [1]: > 100 µM
TGI [2]: > 100 µM
TGI [3]: > 100 µM
TGI [4]: > 100 µM
TGI [5]: > 100 µM
TGI [6]: > 100 µM
TGI [7]: > 100 µM
TGI [8]: > 100 µM
TGI [9]: 51.5 µM
TGI [10]: 55.7 µM
TGI [11]: > 100 µM
TGI [12]: > 100 µM
TGI [13]: > 100 µM
TGI [14]: > 100 µM
TGI [15]: > 100 µM
TGI [16]: > 100 µM
TGI [17]: > 100 µM
TGI [18]: > 100 µM
TGI [19]: > 100 µM
TGI [20]: > 100 µM
TGI [21]: > 100 µM
TGI [22]: > 100 µM
TGI [23]: > 100 µM
TGI [24]: > 100 µM
TGI [25]: > 100 µM
TGI [26]: > 100 µM
TGI [57]: > 100 µM
TGI [27]: > 100 µM
TGI [28]: > 100 µM
TGI [29]: > 100 µM
TGI [30]: > 100 µM
TGI [31]: > 100 µM
TGI [32]: > 100 µM
TGI [58]: > 100 µM
TGI [33]: > 100 µM
TGI [34]: > 100 µM
TGI [35]: > 100 µM
TGI [36]: > 100 µM
TGI [37]: > 100 µM
TGI [38]: > 100 µM
TGI [39]: > 100 µM
TGI [40]: > 100 µM
TGI [41]: > 100 µM
TGI [42]: > 100 µM
TGI [43]: > 100 µM
TGI [44]: > 100 µM
TGI [45]: > 100 µM
TGI [46]: > 100 µM
TGI [47]: > 100 µM
TGI [48]: > 100 µM
TGI [49]: > 100 µM
TGI [50]: > 100 µM
TGI [51]: > 100 µM
TGI [52]: > 100 µM
TGI [53]: > 100 µM
TGI [54]: > 100 µM
TGI [55]: > 100 µM
TGI [56]: 66.1 µM
